17 compounds from patent publication US11414429B2, “Compound or pharmaceutically acceptable salt thereof” (RIKEN, priority 2016, dated 2022) can be followed below.

The target of one assay is T1, tankyrase 1 (TNKS 1) (Homo sapiens, UniProt O95271).
T1 construct: 1,024-1,327aa; made in house; host or cells: cell-free protein synthesis system
Briefly: Tankyrase inhibitory activity test (ELISA, self-polyADP ribosylation), tankyrase 1. The class given is biochemical. The note with it: ELISA, self-polyADP ribosylation; class symbols; read-out: TNKS1 (inhibitory activity against tankyrase 1, IC50 value). The essentials: (§1)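 Flag-tagged TNKS1 (1,024-1,327aa, SAM+PARP) and TNKS2 (613-1,116aa, ANK5+SAM+PARP) were made cell-free and captured overnight at 4 °C on anti-FLAG M2 plates. After 10 min compound preincubation in Tris pH 8.0/MgCl2/DTT buffer, NAD (225 μM) plus biotin-NAD (25 μM) solution was added for 45 min at 30 °C. Auto-PARylation was read by streptavidin-HRP chemiluminescence, giving IC50 from residual activity.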
In general terms: An ELISA detects its analyte on a solid surface through an enzyme-linked reagent.

The target of the next assay is T2, tankyrase 2 (TNKS 2) (Homo sapiens, UniProt Q9H2K2).
T2 construct: 613-1, 116aa; made in house; host or cells: cell-free protein synthesis system
Briefly: Tankyrase inhibitory activity test (ELISA, self-polyADP ribosylation), tankyrase 2. The class given is biochemical. Conditions: ELISA, self-polyADP ribosylation; class symbols; read-out: TNKS2 (inhibitory activity against tankyrase 2, IC50 value). The essentials: as §1

The subject of assay [1] is human colorectal cancer cell line, COLO-320DM. Briefly: Cell proliferation inhibitory activity test (Celltiter-Glo Luminescent Cell Viability Assay). The class given is cell-based. Conditions: COLO-320DM cells, 96 hours, class symbols, read-out: COLO-320 DM (cell proliferation inhibitory activity, GI50 value). The essentials: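 Cells grown in RPMI-1640 with 10% FBS and 2 mM glutamine, seeded overnight, then exposed to compound (1% DMSO final) for 96 h at 37° C., 5% CO2. Viability read by ATP luminescence; GI50 is the concentration reducing cell growth to 50% of DMSO control.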

As a reminder, the IC50 is the concentration that inhibits the measured activity by half.

A value given as a limit tells only on which side of the number the result lay.

T2 sequence (Q9H2K2 613-1166): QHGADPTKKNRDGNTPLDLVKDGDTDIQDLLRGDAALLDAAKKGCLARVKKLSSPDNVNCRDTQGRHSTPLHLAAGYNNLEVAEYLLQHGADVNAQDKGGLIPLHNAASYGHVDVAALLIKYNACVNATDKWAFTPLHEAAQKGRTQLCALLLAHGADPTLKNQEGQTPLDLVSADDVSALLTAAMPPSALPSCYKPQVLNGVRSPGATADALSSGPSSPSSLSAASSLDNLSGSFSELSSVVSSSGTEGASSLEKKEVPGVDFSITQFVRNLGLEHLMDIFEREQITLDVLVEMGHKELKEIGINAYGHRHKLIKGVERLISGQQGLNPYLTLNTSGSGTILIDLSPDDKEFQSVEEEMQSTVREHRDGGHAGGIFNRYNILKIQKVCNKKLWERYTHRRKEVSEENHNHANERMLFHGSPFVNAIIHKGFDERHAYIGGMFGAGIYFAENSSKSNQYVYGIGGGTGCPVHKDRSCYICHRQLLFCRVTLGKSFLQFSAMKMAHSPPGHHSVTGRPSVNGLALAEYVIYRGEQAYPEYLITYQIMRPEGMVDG
T1 sequence (O95271 1024-1327): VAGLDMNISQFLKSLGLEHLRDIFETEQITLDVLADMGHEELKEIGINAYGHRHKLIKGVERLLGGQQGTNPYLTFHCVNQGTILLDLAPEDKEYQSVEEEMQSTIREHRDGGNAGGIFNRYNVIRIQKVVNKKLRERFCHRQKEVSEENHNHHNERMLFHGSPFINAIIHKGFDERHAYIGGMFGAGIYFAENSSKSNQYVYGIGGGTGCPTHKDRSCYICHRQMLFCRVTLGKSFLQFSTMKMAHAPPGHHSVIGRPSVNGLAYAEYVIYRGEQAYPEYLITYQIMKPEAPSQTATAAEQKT

For `CC(=O)N1CCN(c2cc(F)c3c(c2)N(C)C(=O)C32CCN(c3nc4c(c(=O)[nH]3)CCCN4C)CC2)CC1` [Example 403, 6-(4-acetylpiperazin-1-yl)-4-fluoro-1-methyl-1′-(8-methyl-4-oxo-3,4,5,6,7,8-hexahydropy-rido[2,3-d]pyrimidin-2-yl)-spiro [indoline-3,4′-piperidin]-2(1H)-one], the IC50 on tankyrase 1 (TNKS 1) and on tankyrase 2 (TNKS 2) was under 20 nM in each case. For the same compound, the GI50 in assay [1] lay in the range of 100 to 600 nM.

Regarding `CN1CCCc2c1nc(N1CCC3(CC1)C(=O)N(CC(F)(F)F)c1cc(OCCN4CCCC4)cc(F)c13)[nH]c2=O` [Example 404, 4-fluoro-1′-(8-methyl-4-oxo-3,4,5,6,7,8-hexa hydropyrido [2,3-d]pyrimidin-2-yl)-6-[2-(pyrroli-din-1-yl)ethoxy]-1-(2,2,2-trifluoroethyl) spiro [indoline-3,4′-piperidin]-2(1H)-one], the IC50 at tankyrase 1 (TNKS 1) and at tankyrase 2 (TNKS 2) was 20 to 200 nM in each case. In assay [1], the GI50 was 600 to 1000 nM.

On to `COCCN1C(=O)C2(CCN(c3nc4c(c(=O)[nH]3)CCCN4C)CC2)c2c(F)cc(OCCN(C)C)cc21` [Example 405], for which the IC50 at tankyrase 1 (TNKS 1) and at tankyrase 2 (TNKS 2) was under 20 nM in each case. Moreover, the GI50 in assay [1] lay within 600 to 1000 nM.

As to `CN1CCN(CCOc2cc(F)c3c(c2)N(CC(F)(F)F)C(=O)C32CCN(c3nc4c(c(=O)[nH]3)CCCN4C)CC2)CC1` [Example 406, 4-fluoro-1′-(8-methyl-4-oxo-3,4,5,6,7,8-hex-ahydropyrido[2,3-d]pyrimidin-2-yl)-6-[2-(4-methylpiperazin-1-yl)ethoxy]-1-(2,2,2-trifluoroethyl)spiro [indoline-3,4′-piperidin]-2(1H)-one], the IC50 on tankyrase 1 (TNKS 1) and on tankyrase 2 (TNKS 2) was 20 to 200 nM each time. Further, the GI50 in assay [1] is under 100 nM.

For the compound `COCCN1C(=O)C2(CCN(c3nc4c(c(=O)[nH]3)CCCN4C)CC2)c2c(F)cc(N3CCN(C)CC3)cc21` [Example 407, 4-fluoro-1-(2-methoxy-ethyl)-1′-(8-methyl-4-oxo-3,4,5,6,7,8-hexahydropyrido[2,3-d]pyrimidin-2-yl)-6-(4-methylpiperazin-1-yl) spiro[indoline-3,4′-piperidin]-2(1H)-one], the IC50 at tankyrase 1 (TNKS 1) was 20 to 200 nM; at tankyrase 2 (TNKS 2), under 20 nM. For the same compound, the GI50 in assay [1] was 100 to 600 nM.

Take `COCCN1C(=O)C2(CCN(c3nc4c(c(=O)[nH]3)CCCN4C)CC2)c2c(F)cc(OCC(=O)O)cc21` [Example 409]: the IC50 at tankyrase 1 (TNKS 1) and on tankyrase 2 (TNKS 2) was under 20 nM in each case. Further, in assay [1], the GI50 was 600 to 1000 nM.

Turning to `COCCN1C(=O)C2(CCN(c3nc4c(c(=O)[nH]3)CCCN4C)CC2)c2c(F)cc(OCCO)cc21` [Example 410, 4-fluoro-6-(2-hydroxy-ethoxy)-1-(2-methoxyethyl)-1′-(8-methyl-4-oxo-3,4,5,6,7,8-hexahydro-pyrido[2,3-d]pyrimi-din-2-yl)spiro[indoline-3,4′-piperidin]-2(1H)-one], the half-maximal inhibitory concentration (IC50) on tankyrase 1 (TNKS 1) and at tankyrase 2 (TNKS 2) was under 20 nM in each case. Besides, the GI50 in assay [1] fell in the range of 100 to 600 nM.

Regarding `CN1CCCc2c1nc(N1CCC3(CC1)C(=O)N(C)c1c(OCC(=O)O)ccc(F)c13)[nH]c2=O` [Example 412, 2-[4-fluoro-1′-(4-hy-droxy-8-methyl-6,7-di-hydro-5H-pyrido[2,3-d]pyrimidin-2-yl)-1-meth-yl-2-oxospiro[indole-3,4′-piperidin]-7-yl] oxyacetic acid], the IC50 on tankyrase 1 (TNKS 1) and at tankyrase 2 (TNKS 2) was under 20 nM throughout. Also, the GI50 in assay [1] fell in the range of 600 to 1000 nM.

Take `CN1CCC(COc2ccc(F)c3c2N(C)C(=O)C32CCN(c3nc4c(c(=O)[nH]3)CCCN4C)CC2)CC1` [Example 413]: the half-inhibitory concentration (IC50) was 20 to 200 nM on tankyrase 1 (TNKS 1) and under 20 nM on tankyrase 2 (TNKS 2). In assay [1], the GI50 lay in the range of 600 to 1000 nM.

For `CN1C(=O)C2(CCN(c3nc4c(c(=O)[nH]3)CCCN4)CC2)c2c(F)ccc(OCCO)c21` [Example 414, 4-fluoro-7-(2-hydroxy-ethoxy)-1′-(4-hydroxy-5,6,7,8-tetrahdyro-pyrido[2,3-d]pyrimidin-2-yl)-1-methyl-spiro [indole-3,4′-piperidin]-2-one], the IC50 on tankyrase 1 (TNKS 1) and on tankyrase 2 (TNKS 2) was under 20 nM in each case. Moreover, the GI50 in assay [1] fell in the range of 600 to 1000 nM.

With `CN1CCCc2c1nc(N1CCC3(CC1)C(=O)N(C)c1c(OCc4nnn[nH]4)ccc(Cl)c13)[nH]c2=O` [Example 415, 4-chloro-1′-(4-hydroxy-8-methyl-6,7-dihydro-5H-pyrido[2,3-b]py-rimidin-2-yl)-1-meth-yl-7-(2H-tetrazol-5-yl-methoxy)spiro[indole-3,4′-piperidin]-2-one], the concentration for half-maximal inhibition (IC50) on tankyrase 1 (TNKS 1) and on tankyrase 2 (TNKS 2) was under 20 nM in each case. For the same compound, in assay [1], the GI50 fell in the range of 600 to 1000 nM.

With `COCCN1C(=O)C2(CCN(c3nc4c(c(=O)[nH]3)CCCN4C)CC2)c2c(F)cc(N3CCNCC3)cc21` [Example 416], the IC50 on tankyrase 1 (TNKS 1) and on tankyrase 2 (TNKS 2) was under 20 nM throughout. Also, the GI50 in assay [1] was 100 to 600 nM.

Regarding `C[C@@H]1CN(c2cc(F)c3c(c2)N(CC(F)(F)F)C(=O)C32CCN(c3nc4c(c(=O)[nH]3)CCCN4C)CC2)C[C@H](C)N1` [Example 417, 6-(cis-3,5-dimethyl-piperazin-1-yl)-4-fluoro-1′-(8-methyl-4-oxo-3,4,5,6,7,8-hexahydropyrido[2,3-d]pyrimidin-2-yl)-1-(2,2,2-trifluoroethyl) spiro[indoline-3,4′-piperidin]-2-one], the concentration for half-maximal inhibition (IC50) at tankyrase 1 (TNKS 1) and at tankyrase 2 (TNKS 2) was under 20 nM each time. In addition, in assay [1], the GI50 was in the range of 600 to 1000 nM.

Regarding `COCCN1C(=O)C2(CCN(c3nc4c(c(=O)[nH]3)CCCN4C)CC2)c2c(F)cc(OCc3nnn[nH]3)cc21` [Example 418, 4-fluoro-1-(2-methoxyethyl)-1′-(8-methyl-4-oxo-3,4,5,6,7,8-hexahydropyrido[2,3-d]pyrimidin-2-yl)-6-[(1H-tetrazole-5-yl)methoxy]spiro[indoline-3,4′-piperidine]-2(1H)-one], the 50% inhibitory concentration (IC50) on tankyrase 1 (TNKS 1) and at tankyrase 2 (TNKS 2) was under 20 nM each time. In assay [1], the GI50 was 100 to 600 nM.

`CN1CCCc2c1nc(N1CCC3(CC1)C(=O)N(CC(F)(F)F)c1cc(OCc4nnn[nH]4)cc(F)c13)[nH]c2=O` [Example 419, 6-[(1H-tetrazol-5-yl)methoxy]-4-fluoro-1′-(8-methyl-4-oxo-3,4,5,6,7,8-hexahydro-pyrido[2,3-d]pyrimidin-2-yl)-1-(2,2,2-trifluoro-ethyl)spiro[indoline-3,4′-piperidin]-2(1H)-one]: the IC50 at tankyrase 1 (TNKS 1) and at tankyrase 2 (TNKS 2) was under 20 nM throughout. Besides, the GI50 in assay [1] was under 100 nM.

On to `CN1CCC(Oc2ccc(F)c3c2N(C)C(=O)C32CCN(c3nc4c(c(=O)[nH]3)CCCN4C)CC2)CC1` [Example 420, 4-fluoro-1′-(4-hydroxy-8-methyl-6,7-dihydro-5H-pyrido[2,3-d]pyrimidin-2-yl)-1-methyl-7-(1-methylpiperidin-4-yl)oxyspiro[indole-3,4′-piperidin]-2-one], for which the half-inhibitory concentration (IC50) on tankyrase 1 (TNKS 1) and on tankyrase 2 (TNKS 2) was under 20 nM in each case. Besides, the GI50 in assay [1] lay in the range of 100 to 600 nM.

Turning to `CN1CCCc2c1nc(N1CCC3(CC1)C(=O)N(C)c1c(OCC4CCNCC4)ccc(F)c13)[nH]c2=O` [Example 421, 4-fluoro-1′-(4-hydroxy-8-methyl-6,7-dihydro-5H-pyrido[2,3-d]pyrimidin-2-yl)-1-meth-yl-7-(piperidin-4-yl-methoxy)spiro[indole-3,4′-piperidin]-2-one], the IC50 at tankyrase 1 (TNKS 1) and at tankyrase 2 (TNKS 2) was under 20 nM each time. Also, in assay [1], the GI50 lay in the range of 100 to 600 nM.
